Results published in ChEMBL document CHEMBL4419178, “Yap1 inhibitors that target the interaction of yap1 with oct4” (2018).
The source made the active and inactive calls.

Tests used:
[1] = target: Transcriptional coactivator YAP1 (Homo sapiens) (UniProt P46937); assay: Inhibition of YAP1 in human A549 cells assessed as suppression of ICAM1 level in presence of cancer associated fibroblasts by cytokine array assay; format: cell-based
[2] = target: Transcriptional coactivator YAP1 (Homo sapiens) (UniProt P46937); assay: Inhibition of YAP1 in human A549 cells assessed as suppression of CXCL1 level by cytokine array assay; format: cell-based
[3] = target: Transcriptional coactivator YAP1 (Homo sapiens) (UniProt P46937); assay: Inhibition of YAP1 in human A549 cells assessed as suppression of IL8 level in presence of cancer associated fibroblasts by cytokine array assay; format: cell-based
[4] = target: Transcriptional coactivator YAP1 (Homo sapiens) (UniProt P46937); assay: Inhibition of YAP1 in human A549 cells assessed as suppression of CD40L level by cytokine array assay; format: cell-based
[5] = target: Transcriptional coactivator YAP1 (Homo sapiens) (UniProt P46937); assay: Inhibition of YAP1 in human A549 cells assessed as suppression of MIF level by cytokine array assay; format: cell-based
[6] = target: Transcriptional coactivator YAP1 (Homo sapiens) (UniProt P46937); assay: Inhibition of YAP1 in human A549 cells assessed as suppression of IL6 level in presence of cancer associated fibroblasts by cytokine array assay; format: cell-based
[7] = target: Transcriptional coactivator YAP1 (Homo sapiens) (UniProt P46937); assay: Inhibition of YAP1 in human A549 cells assessed as suppression of CXCL12 level by cytokine array assay; format: cell-based
[8] = target: Transcriptional coactivator YAP1 (Homo sapiens) (UniProt P46937); assay: Inhibition of YAP1 in human A549 cells assessed as suppression of IL13 level by cytokine array assay; format: cell-based
[9] = target: Transcriptional coactivator YAP1 (Homo sapiens) (UniProt P46937); assay: Inhibition of YAP1 in human A549 cells assessed as suppression of IL32-alpha level by cytokine array assay; format: cell-based
[10] = target: Transcriptional coactivator YAP1 (Homo sapiens) (UniProt P46937); assay: Inhibition of YAP1 in human A549 cells assessed as reduction in Sox2 protein expression at 5 uM by Western blot analysis; format: cell-based
[11] = target: Transcriptional coactivator YAP1 (Homo sapiens) (UniProt P46937); assay: Inhibition of YAP1 in human NCI-H1650 cells assessed as reduction in Sox2 protein expression at 5 uM by Western blot analysis; format: cell-based
[12] = target: Transcriptional coactivator YAP1 (Homo sapiens) (UniProt P46937); assay: Inhibition of YAP1 in human A549 cells assessed as suppression of CCL2 level by cytokine array assay; format: cell-based
[13] = target: Transcriptional coactivator YAP1 (Homo sapiens) (UniProt P46937); assay: Inhibition of YAP1 in human A549 cells assessed as suppression of Serpine-E1 level by cytokine array assay; format: cell-based
[14] = target: Transcriptional coactivator YAP1 (Homo sapiens) (UniProt P46937); assay: Inhibition of YAP1 in human A549 cells assessed as suppression of ICAM1 level by cytokine array assay; format: cell-based
[15] = target: Transcriptional coactivator YAP1 (Homo sapiens) (UniProt P46937); assay: Inhibition of YAP1 in human A549 cells assessed as suppression of CXCL12 level in presence of cancer associated fibroblasts by cytokine array assay; format: cell-based
[16] = target: Transcriptional coactivator YAP1 (Homo sapiens) (UniProt P46937); assay: Inhibition of YAP1 in human A549 cells assessed as suppression of IL8 level by cytokine array assay; format: cell-based
[17] = target: Transcriptional coactivator YAP1 (Homo sapiens) (UniProt P46937); assay: Inhibition of YAP1 in human A549 cells assessed as suppression of CCL2 level in presence of cancer associated fibroblasts by cytokine array assay; format: cell-based
[18] = target: Transcriptional coactivator YAP1 (Homo sapiens) (UniProt P46937); assay: Inhibition of YAP1 in human A549 cells assessed as suppression of IL18 level by cytokine array assay; format: cell-based
[19] = target: Transcriptional coactivator YAP1 (Homo sapiens) (UniProt P46937); assay: Inhibition of YAP1 in human A549 cells assessed as suppression of MIF level in presence of cancer associated fibroblasts by cytokine array assay; format: cell-based
[20] = target: Transcriptional coactivator YAP1 (Homo sapiens) (UniProt P46937); assay: Inhibition of YAP1 in human A549 cells assessed as suppression of Serpine-E1 level in presence of cancer associated fibroblasts by cytokine array assay; format: cell-based
[21] = target: Transcriptional coactivator YAP1 (Homo sapiens) (UniProt P46937); assay: Inhibition of YAP1 in human A549 cells assessed as suppression of IL1alpha level by cytokine array assay; format: cell-based
[22] = target: Transcriptional coactivator YAP1 (Homo sapiens) (UniProt P46937); assay: Inhibition of YAP1 in human A549 cells assessed as suppression of IL6 level by cytokine array assay; format: cell-based
[23] = target: Transcriptional coactivator YAP1 (Homo sapiens) (UniProt P46937); assay: Inhibition of YAP1 in human NCI-H1650 cells assessed as suppression of PDK2 mRNA expression at 5 to 10 uM incubated for 72 hrs by RT-PCR method; format: cell-based
[24] = target: Transcriptional coactivator YAP1 (Homo sapiens) (UniProt P46937); assay: Inhibition of YAP1 in human NCI-H1703 cells assessed as suppression of HK2 mRNA expression at 5 to 10 uM incubated for 72 hrs by RT-PCR method; format: cell-based
[25] = target: Transcriptional coactivator YAP1 (Homo sapiens) (UniProt P46937); assay: Inhibition of YAP1 in human NCI-H1650 cells assessed as suppression of PD-L1 mRNA expression at 5 to 10 uM incubated for 72 hrs by RT-PCR method; format: cell-based
[26] = target: Transcriptional coactivator YAP1 (Homo sapiens) (UniProt P46937); assay: Inhibition of YAP1 in human NCI-H146 cells assessed as suppression of PDK2 mRNA expression at 5 to 10 uM incubated for 72 hrs by RT-PCR method; format: cell-based
[27] = target: Transcriptional coactivator YAP1 (Homo sapiens) (UniProt P46937); assay: Inhibition of YAP1 in human NCI-H146 cells assessed as suppression of HK2 mRNA expression at 5 to 10 uM incubated for 72 hrs by RT-PCR method; format: cell-based
[28] = target: Transcriptional coactivator YAP1 (Homo sapiens) (UniProt P46937); assay: Inhibition of YAP1 in human NCI-H1703 cells assessed as suppression of PDK2 mRNA expression at 5 to 10 uM incubated for 72 hrs by RT-PCR method; format: cell-based
[29] = test system: NCI-H1650; assay: Inhibition of self-renewal capacity in cisplatin insensitive stem-like side-population cells of human NCI-H1650 cells assessed as reduction in number of spheres at 2 uM incubated for 5 days after 7 days cisplatin exposure by sphere formation assay; format: functional, cell-based
[30] = target: Transcriptional coactivator YAP1 (Homo sapiens) (UniProt P46937); assay: Inhibition of YAP1 in human NCI-H1650 cells assessed as suppression of HK2 mRNA expression at 5 to 10 uM incubated for 72 hrs by RT-PCR method; format: cell-based
[31] = target: Transcriptional coactivator YAP1 (Homo sapiens) (UniProt P46937); assay: Inhibition of YAP1 in human NCI-H1703 cells assessed as suppression of PD-L1 mRNA expression at 5 to 10 uM incubated for 72 hrs by RT-PCR method; format: cell-based

Measured: inhibition

Chain of Transcriptional coactivator YAP1 (Homo sapiens) (P46937 whole entry): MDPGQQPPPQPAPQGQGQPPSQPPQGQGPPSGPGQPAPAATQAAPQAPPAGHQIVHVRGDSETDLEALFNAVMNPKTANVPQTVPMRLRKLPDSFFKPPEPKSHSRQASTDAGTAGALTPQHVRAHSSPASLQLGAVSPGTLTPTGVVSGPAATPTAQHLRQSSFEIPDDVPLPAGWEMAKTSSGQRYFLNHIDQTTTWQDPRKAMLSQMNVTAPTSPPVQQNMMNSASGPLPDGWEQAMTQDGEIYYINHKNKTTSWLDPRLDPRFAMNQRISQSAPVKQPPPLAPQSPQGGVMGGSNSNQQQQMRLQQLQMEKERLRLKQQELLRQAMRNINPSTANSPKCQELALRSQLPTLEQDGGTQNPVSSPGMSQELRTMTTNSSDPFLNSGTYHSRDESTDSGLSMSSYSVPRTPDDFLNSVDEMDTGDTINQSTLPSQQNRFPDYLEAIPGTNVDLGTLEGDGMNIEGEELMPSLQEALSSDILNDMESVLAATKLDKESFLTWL

COC(=O)[C@H](Cc1ccc(OCc2ccccc2)cc1)NC(=O)CC1CCN(C(=O)CCc2ccc(C#N)cc2)CC1
active: [1] | [2] | [3] | [4] | [5] | [6] | [7] | [8] | [9] | [10] | [11] | [12] | [13] | [14] | [15] | [16] | [17] | [18] | [19] | [20] | [21] | [22]

COC(=O)[C@H](Cc1ccc(OCc2ccccc2)cc1)NC(=O)CC1CCN(C(=O)CCc2ccc(Cl)c(Cl)c2)CC1
active: [23] | [24] | [25] | [26] | [27] | [28] | [29] | [30] | [31]
